What was measured:
wild type C57BL/6J mice [1] = experiment: Toxicity study in wild type C57BL/6J mice; assay type: in vivo, mouse; details: wild type C57/BL6 mice, 50 or 100 mg/kg MD001 for eight weeks
From the text: Supplementary Table S4. Laboratory findings in control and MD001-treated mice
Results are expressed as the mean ( ± SD).
ALT, alanine transaminase; AST, aspartate transaminase; BUN, blood urea nitrogen; WBC, white blood cells.
Supplementary Table S5. Crystal data and structure refinement for 4a
Identification code exp_524
Empirical formula C27H22O5
Crystal system monoclinic

db/db mice = experiment: Oral once-daily administration to diabetic db/db mice
Procedure: (A) Changes in blood glucose levels was monitored in db/db mice administered once a day with vehicle, WY14643 (WY, 20 mg/kg), rosiglitazone (rosi, 20 mg/kg), or MD001 (n = 5–6 per group) as indicated. […] (D–M) The change in various blood metabolites was examined in db/db mice administered once a day with vehicle, WY14643 (WY), rosiglitazone (rosi), or MD001 (n = 5–6 per group). *, **, and ^#, vs. vehicle; ^†, vs. vehicle, MD001(5 mg/kg), and MD001(20 mg/kg). The data represent the mean ± S.D. *P < 0.05, **P < 0.01, ^#P < 0.001, and ^†P < 0.01.
Six-week-old C57BLKS/J-Lepr^db/Lepr^db or wild type C57BL/6J male mice were purchased from Orient Bio, Inc. (Seongnam, Korea) and acclimatised for one week. Mice were randomly grouped and orally administered with vehicle, WY14643 (20 mg/kg), rosiglitazone (20 mg/kg), or MD001 (5 mg/kg or 20 mg/kg) once a day for two months. […] Blood glucose levels were measured at the indicated time point using an OneTouch Ultra Blood Glucose Monitoring System (LifeScan, Inc., Milpitas, CA, USA).
Livers and blood samples were collected from mice in each group.
Tissues specimens including liver, perigonadal adipose tissue, skeletal muscle, spleen, kidney, and heart, were collected from mice in each group, fixed in 10% formalin, and embedded into paraffin. Tissue sections (5 μm) were stained with haematoxylin and eosin (H&E).

wild type C57BL/6J mice [2] = experiment: Oral once-daily administration to wild type C57BL/6J mice; assay type: in vivo, mouse
Procedure: Supplementary Figure S6. MD001 has no influence on food intake of mice. (A) Wild type C57/BL6 mice were orally administered with vehicle, rosiglitazone (20 mg/kg), or MD001 (20 mg/kg) once a day for 60 days. The change in their body weight was evaluated and presented as gain of body weight per group (n = 5 - 6 in each group). (B) The 3-day food intake in wild type C57/BL6 mice or db/db mice during the administration of the indicated drug was measured three times (n = 5 - 6 in each group). The data represent the mean ± SD.
C57/BL6 mice. (A-H) Wild type C57/BL6 mice were administered with vehicle, rosiglitazone (20 mg/kg), or MD001 (20 mg/kg) (n = 5 in each group) for 60 days, and their blood metabolites were measured. (B) Blood glucose level was examined during the administration of the […]

[3] = system: differentiated 3T3-L1 adipocytes; experiment: qRT-PCR gene expression in differentiated 3T3-L1 adipocytes; assay type: cell-based, mouse; details: 24 h
Procedure: Figure 3 MD001 promotes glucose consumption by induction of GLUT expression. HepG2 (A), differentiated 3T3-L1 adipocytes (B), and differentiated C2C12 myotubes (C) were treated with vehicle, MD001 (10, 50 μM), or rosiglitazone (rosi, 10 μM) for 24 h; glucose consumption was examined as described in the Methods section. Cells were harvested for total RNA isolation. Relative expression levels of GLUT2 (D) and GLUT4 (E,F) were quantitated using qRT-PCR. *, **, and ^† vs. vehicle. Data represent the mean ± SD of three independent experiments. *P < 0.05, **P < 0.01, and ^†P < 0.01.
Figure 4 MD001 stimulates fatty acid oxidation in vitro. […] Relative gene expressions were analysed by qRT-PCR. HepG2 (D), differentiated 3T3-L1 adipocytes (E), and differentiated C2C12 myotubes (F) were treated with vehicle, MD001 (10 μM), or WY14643 (WY) (10 μM) for 24 h and the fatty acid oxidation rate was analysed as described in the Methods section. […]
Total RNA was isolated using an RNeasy kit (Qiagen, Germantown, MD, USA) according to the manufacturer’s instructions. Complementary DNA (cDNA) was synthesised by reverse transcription using 0.5 μg of total RNA, and quantitative RT-PCR was performed using Power SYBR Green PCR Master Mix (ABI Thermo Fisher Scientific, Foster City, CA, USA) on a StepOne 48-well real-time PCR system (ABI/Thermo Fisher Scientific). […]

[4] = db/db mice, 60 days, rosiglitazone 20 mg/kg, MD001 5 and 20 mg/kg
[5] = db/db mice, once a day for 60 days, rosiglitazone 20 mg/kg
[6] = db/db mice, 20 mg/kg, 60 days, qRT-PCR
[7] = db/db mice, 20 mg/kg, qRT-PCR and immunoblot
[8] = wild type C57BL/6J mice, 20 mg/kg, 60 days, compared to vehicle
[9] = wild type C57BL/6 mice, 20 mg/kg, 60 days

Question: `Cc1c(O)cc(O)c2c(-c3ccccc3)c(C(=O)/C=C/c3ccccc3)c(=O)oc12` [MD001] was tested. Which “liver and kidney toxicities” value (wild type C57BL/6J mice [1]) did it give?
Answer: not observed

Question: What about the “white blood cell counts and haemoglobin (toxicology study)” value (wild type C57BL/6J mice [1]) of the same molecule?
Answer: no differences

Question: And the body weight change (wild type C57BL/6J mice [1]; data not shown)?
Answer: no significant differences

Question: What about the “blood glucose levels in intraperitoneal insulin tolerance test (IPITT)” value (db/db mice; db/db mice) of the same molecule?
Answer: lowered

Question: What about the body weight gain (db/db mice; db/db mice, 60 days, compared to vehicle) of the same molecule?
Answer: no induction of body weight gain

Question: What about the RBC count (db/db mice; [4]) of the same molecule?
Answer: did not decrease

Question: What about the “haematocrit (HCT) level” value (db/db mice; [4]) of the same molecule?
Answer: did not decrease

Question: And the “haemoglobin (Hb) level” value (db/db mice; [4])?
Answer: did not decrease

Question: And the “number of large fat cells (>150 μm in diameter)” value (db/db mice; db/db mice, adipose tissue H&E)?
Answer: significantly reduced

Question: And the “number of medium fat cells (100~150 μm in diameter)” value (db/db mice; db/db mice, adipose tissue H&E)?
Answer: significantly increased

Question: What about the “number of small fat cells (<100 μm in diameter)” value (db/db mice; db/db mice, adipose tissue H&E) of the same molecule?
Answer: significantly increased

Question: And the “increase in fat mass as compared to the vehicle control” value (db/db mice; [5])?
Answer: no increase

Question: What about the “increase in liver weight as compared to the vehicle control” value (db/db mice; [5]) of the same molecule?
Answer: no increase

Question: And the HDL levels (db/db mice; db/db mice, oral once a day)?
Answer: increased

Question: What about the LDL levels (db/db mice; db/db mice, oral once a day) of the same molecule?
Answer: significantly decreased

Question: And the “blood FFA” value (db/db mice; db/db mice, oral once a day)?
Answer: significantly decreased

Question: And the “blood TG” value (db/db mice; db/db mice, oral once a day)?
Answer: significantly decreased

Question: And the “blood alanine aminotransferase (ALT) levels” value (db/db mice; db/db mice, oral once a day)?
Answer: significantly reduced

Question: What about the “blood aspartate aminotransferase (AST) levels” value (db/db mice; db/db mice, oral once a day) of the same molecule?
Answer: significantly reduced

Question: And the blood insulin (db/db mice; db/db mice, oral once a day)?
Answer: significantly decreased

Question: What about the “serum adiponectin (Acrp30) levels” value (db/db mice; db/db mice, oral once a day) of the same molecule?
Answer: increased

Question: And the total cholesterol levels (db/db mice; db/db mice, oral once a day)?
Answer: did not affect

Question: What about the blood glucose levels (db/db mice; db/db mice, oral once a day, MD001 5 or 20 mg/kg, WY14643 20 mg/kg, rosiglitazone 20 mg/kg) of the same molecule?
Answer: significantly decreased blood glucose levels in a dose-dependent manner

Question: And the “hepatic FFA” value (db/db mice; db/db mice, 20 mg/kg)?
Answer: significantly reduced

Question: And the “hepatic TG” value (db/db mice; db/db mice, 20 mg/kg)?
Answer: significantly reduced

Question: What about the “hepatic steatosis (H&E staining of liver)” value (db/db mice; db/db mice, 20 mg/kg) of the same molecule?
Answer: reduction in size and number of hepatic lipid droplets in a dose-dependent manner

Question: What about the “diameter of the glomerular capsule” value (db/db mice; db/db mice, 20 mg/kg once a day for 60 days) of the same molecule?
Answer: significantly reduced

Question: And the “expression of PEPCK and G6Pase in the liver” value (db/db mice; db/db mice, 20 mg/kg once a day for 60 days, qRT-PCR)?
Answer: decreased

Question: What about the “H&E staining of skeletal muscle” value (db/db mice; db/db mice, 20 mg/kg, 60 days, compared among vehicle and treated groups) of the same molecule?
Answer: no differences

Question: And the “expression of inflammatory genes TNFα, MCP-1 and macrophage-marker genes CD11b, CD11c” value (db/db mice; [6])?
Answer: decreased

Question: What about the “liver expression of hepatic lipogenesis genes ADD1, ACC, FAS” value (db/db mice; [6]) of the same molecule?
Answer: decreased

Question: And the “skeletal muscle expression of ACOX, CPT, MLYCD, GLUT4, and LPL” value (db/db mice; [6])?
Answer: significantly increased

Question: What about the “adipose tissue expression of ACOX, CPT, GLUT4, and CD36” value (db/db mice; [7]) of the same molecule?
Answer: significantly increased

Question: And the “liver expression of target genes of PPARα (ACOX, CPT, MLYCD) and PPARγ (GLUT2, GK, CD36)” value (db/db mice; [7])?
Answer: significantly increased

Question: What about the “blood glucose levels in oral glucose tolerance test (OGTT)” value (db/db mice; db/db mice, glucose 1 g/kg, eight weeks after drug administration) of the same molecule?
Answer: significantly decreased

Question: And the food ingestion (db/db mice; wild type C57BL/6J and db/db mice, 3-day food intake)?
Answer: without changes in food ingestion

Question: What about the body weight gain (wild type C57BL/6J mice [2]; wild type C57BL/6J mice, once a day for 60 days) of the same molecule?
Answer: no induction of body weight gain

Question: What about the “H&E staining of adipose tissue, skeletal muscle, and liver” value (wild type C57BL/6J mice [2]; wild type C57BL/6J mice, 20 mg/kg once a day for 60 days) of the same molecule?
Answer: no differences

Question: What about the blood glucose (wild type C57BL/6J mice [2]; [8]) of the same molecule?
Answer: did not have any effect

Question: What about the “levels of plasma lipids” value (wild type C57BL/6J mice [2]; [8]) of the same molecule?
Answer: did not have any effect

Question: And the “blood ALT levels” value (wild type C57BL/6J mice [2]; [9])?
Answer: no effect

Question: And the “blood AST levels” value (wild type C57BL/6J mice [2]; [9])?
Answer: no effect

Question: And the “expression levels of ACOX and CPT” value ([3]; 10 μM)?
Answer: significantly increased

Question: And the “expression of glucose transporter GLUT4” value ([3]; 10, 50 μM)?
Answer: significantly increased

Reference: article PMC6367362, “MD001, a Novel Peroxisome Proliferator-activated Receptor α/γ Agonist, Improves Glucose and Lipid Metabolism” (Scientific Reports, 2019)
